Here are results for 2 compounds from patent publication EP4782437A1, “HETEROARYL COMPOUND, AND PREPARATION METHOD THEREFOR AND USE THEREOF IN MEDICINE” (Jiangsu Hengrui Pharmaceuticals Co., Ltd., priority 2023, dated 2025).

The experiment addresses hERG potassium channels (Homo sapiens, UniProt Q12809). As to the kind of experiment: hERG channel inhibition, automated patch-clamp in HEK293-hERG stable transfected cell line. To be noted: read-out: IC50 values of blocking effects on hERG potassium currents, whole-cell patch-clamp, tail currents. On the technique in general: The hERG channel carries a current that helps repolarise heart muscle cells.

SMILES strings stand for the structures. pIC50: −log10 of the molar value.

A word on the pIC50: it is the negative decadic logarithm of the IC50, by convention in mol/L.

hERG potassium channels, sequence (Q12809 whole entry): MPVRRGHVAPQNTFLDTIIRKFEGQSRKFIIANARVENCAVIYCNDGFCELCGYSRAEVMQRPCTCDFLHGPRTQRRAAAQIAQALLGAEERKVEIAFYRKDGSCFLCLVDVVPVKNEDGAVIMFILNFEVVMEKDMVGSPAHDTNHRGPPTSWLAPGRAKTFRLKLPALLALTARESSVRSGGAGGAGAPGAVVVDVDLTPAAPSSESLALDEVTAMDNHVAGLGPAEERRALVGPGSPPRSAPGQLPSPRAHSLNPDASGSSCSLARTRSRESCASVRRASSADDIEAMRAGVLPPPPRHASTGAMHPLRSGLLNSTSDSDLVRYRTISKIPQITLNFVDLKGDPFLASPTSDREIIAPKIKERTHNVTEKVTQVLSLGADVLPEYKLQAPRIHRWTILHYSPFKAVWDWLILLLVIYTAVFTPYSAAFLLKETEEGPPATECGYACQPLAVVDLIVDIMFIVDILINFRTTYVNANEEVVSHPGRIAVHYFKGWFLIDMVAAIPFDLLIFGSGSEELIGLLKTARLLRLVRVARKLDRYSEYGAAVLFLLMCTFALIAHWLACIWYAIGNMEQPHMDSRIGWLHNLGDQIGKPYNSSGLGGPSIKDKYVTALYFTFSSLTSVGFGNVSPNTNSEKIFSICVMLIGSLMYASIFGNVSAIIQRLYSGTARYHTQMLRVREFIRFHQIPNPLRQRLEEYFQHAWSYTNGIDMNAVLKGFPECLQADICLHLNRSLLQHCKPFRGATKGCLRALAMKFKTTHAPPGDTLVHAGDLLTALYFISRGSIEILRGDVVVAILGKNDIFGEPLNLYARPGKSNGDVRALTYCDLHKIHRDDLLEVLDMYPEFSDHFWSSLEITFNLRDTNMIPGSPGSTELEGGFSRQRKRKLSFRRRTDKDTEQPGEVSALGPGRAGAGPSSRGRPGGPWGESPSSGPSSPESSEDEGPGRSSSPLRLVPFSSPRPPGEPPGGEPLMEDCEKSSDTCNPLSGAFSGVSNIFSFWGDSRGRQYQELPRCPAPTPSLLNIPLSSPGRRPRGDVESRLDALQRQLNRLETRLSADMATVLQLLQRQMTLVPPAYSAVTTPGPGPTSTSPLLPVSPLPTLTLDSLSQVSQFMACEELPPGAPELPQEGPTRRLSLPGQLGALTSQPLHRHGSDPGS

Take `C=C(C)C(=O)NCCOc1c(N)ncnc1-c1cc(F)cc(NC(=O)c2ccc3c(c2F)OC(C)(C)C3)c1C` [Example 4, N-(3-(6-amino-5-(2-(N-methacrylamido)ethoxy)pyrimidin-4-yl)-5-fluoro-2-methylphenyl)-7-fluoro-2,2-dimethyl-2,3-dihydrobenzofuran-6-carboxamide]: the pIC50 was 4.81. To `C=C(C)C(=O)NCCOc1c(N)ncnc1-c1cc(F)cc(NC(=O)c2sc3c(c2F)CC2(CC2)C3)c1C` [Example 26-1, N-(3-(6-amino-5-(2-(N-methacrylamido)ethoxy)pyrimidin-4-yl)-5-fluoro-2-methylphenyl)-3-fluoro-4,6-dihydrospiro[cyclopenta[b]thiophene-5,1'-cyclopropane]-2-carboxamide] belongs 4.85.
